Measurements from patent US20250179047A1, “5-[7-(3,4-DIHYDRO-1H-ISOQUINOLINE-2-CARBONYL)-1,2,3,4 TETRAHYDROISOQUINOLIN-6-YL]-1H-PYRROLE-3-CARBOXAMIDE DERIVATIVES, PHARMACEUTICAL COMPOSITIONS CONTAINING THEM AND THEIR USES AS PRO-APOPTOTIC AGENTS” (LES LABORATOIRES SERVIER, priority 2022, published 2025).

Assays:
[1] = tested on: BCL2 G101V; assay: TR-FRET competitive binding assay, BCL2 G101V; design: species or system human; details: ratio Ki BCL2 G101V / Ki BCL2 WT
Outline: (§1)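 Competitive TR-FRET displacement of fluorescein-PUMA peptide (2 or 20 nM) from 0.5 nM terbium-labelled N-terminal Halo-fusion BCL2 (1-207, wild type or mutant) or BCLXL (2-196), expressed in E. coli. Buffer 50 mM Hepes pH 7.5, 150 mM NaCl, 5% DMSO; 2 h at 23°C. 520/495 nm ratio fitted over 11 points for IC50, converted to Ki.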

[2] = target: BCL2 G101V (Homo sapiens, UniProt P10415, G101V); assay: TR-FRET competitive binding assay, BCL2 G101V; details: BCL2 G101V; Ki determined from IC50; read-out: TR_FRET EKI_Bcl2 G101V
Outline: as §1

[3] = target: BCL2 D103Y (Homo sapiens, UniProt P10415, D103Y); assay: TR-FRET competitive binding assay, BCL2 D103Y; details: Ki determined from IC50, read-out: TR_FRET EKI_Bcl2 D103Y
Outline: as §1

[4] = target: BCLXL WT (Homo sapiens (Human), UniProt Q07817); assay: TR-FRET competitive binding assay, BCLXL WT; details: for Ki: BCLXL WT, Ki determined from IC50, read-out: TR_FRET EKI BclxL; for TR_FRET EKI BCLxL/WT selectivty ratio: ratio Ki BCLxL / Ki BCL2 WT
Chain of BCLXL WT (Q07817 other isoform, or with tags, fused parts or gaps): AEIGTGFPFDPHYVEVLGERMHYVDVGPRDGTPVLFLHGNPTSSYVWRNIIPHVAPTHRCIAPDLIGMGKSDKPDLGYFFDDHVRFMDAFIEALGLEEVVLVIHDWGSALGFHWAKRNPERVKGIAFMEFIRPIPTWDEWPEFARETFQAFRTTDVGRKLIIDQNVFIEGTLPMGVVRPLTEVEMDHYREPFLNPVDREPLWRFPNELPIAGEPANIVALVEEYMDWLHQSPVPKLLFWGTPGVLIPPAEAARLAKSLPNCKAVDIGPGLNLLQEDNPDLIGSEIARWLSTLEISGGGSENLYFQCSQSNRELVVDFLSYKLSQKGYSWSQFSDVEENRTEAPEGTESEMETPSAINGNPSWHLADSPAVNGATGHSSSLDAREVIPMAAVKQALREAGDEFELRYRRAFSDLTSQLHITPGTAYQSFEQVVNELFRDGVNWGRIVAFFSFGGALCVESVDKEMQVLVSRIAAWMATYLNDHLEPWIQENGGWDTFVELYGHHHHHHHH
Outline: as §1

[5] = target: BCL2 WT (Homo sapiens (Human), UniProt P10415); assay: TR-FRET competitive binding assay, BCL2 WT; details: Ki determined from IC50, read-out: TR_FRET EKI_Bcl2 WT
Outline: as §1

[6] = tested on: KMS-12-PE Bcl-2 WT; assay: In vitro cytotoxicity CellTiter-Glo 48 h, KMS-12-PE Bcl-2 WT; format: cell-based; details: Homo sapiens, KMS-12-PE, C50 = concentration needed to reach 50% of the cellular viability
Outline: (§2)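 Potency is expressed as C50, the compound concentration at which viability of engineered KMS-12-PE cells (Bcl-2 wild type or G101V) falls to 50%, determined from CellTiter-Glo luminescence after 48 h of treatment over 11 concentrations.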

[7] = tested on: KMS-12-PE Bcl-2 G101V; assay: In vitro cytotoxicity CellTiter-Glo 48 h, KMS-12-PE Bcl-2 G101V; format: cell-based; details: for Ratio (G101V/WT): C50 KMS-12-PE Bcl-2 G101V over C50 KMS-12-PE Bcl-2 WT; for IC50: Homo sapiens, KMS-12-PE, 48 h, CellTiter-Glo, C50 = concentration needed to reach 50% of the cellular viability
Outline: as §2

SMILES	TR_FRET EKI G101V/WT selectivty ratio [1]	Ki [2]	Ki [3]	Ki [4]	TR_FRET EKI BCLxL/WT selectivty ratio [4]	Ki [5]	IC50 [6]	Ratio (G101V/WT) [7]	IC50 [7]
Cc1c(C(=O)N(c2ccc(O)cc2)c2cc(C#N)n(C(F)F)c2C)cc(-c2cc3c(cc2C(=O)N2Cc4ccccc4C[C@H]2C)CN(C(=O)Cc2ccc(OCCN4CCOCC4)cc2)CC3)n1C [Example 95, N-[5-cyano-1-(difluoromethyl)-2-methylpyrrol-3-yl]-N-(4-hydroxyphenyl)-1,2-dimethyl-5-(7-{[(3R)-3-methyl-3,4-dihydro-1H-isoquinolin-2-yl]carbonyl}-2-(2-{4-[2-(morpholin-4-yl)ethoxy]phenyl}acetyl)-3,4-dihydro-1H-isoquinolin-6-yl)pyrrole-3-carboxamide]	3.2	0.6 nM	0.46 nM	3.9 nM	21.7	0.18 nM	0.0048 µM	4.11	0.0196 µM
Cc1c(N(C(=O)c2cc(-c3cc4c(cc3C(=O)N3Cc5ccccc5C[C@H]3CN3CCCC3)CN(C(=O)Cc3ccc(OCCC5CCOCC5)cc3)CC4)n(C)c2C)c2ccc(O)cc2)cc(C#N)n1C [Example 99, N-(5-cyano-1,2-dimethylpyrrol-3-yl)-N-(4-hydroxyphenyl)-1,2-dimethyl-5-[2-(2-{4-[2-(oxan-4-yl)ethoxy]phenyl}acetyl)-7-{[(3S)-3-(pyrrolidin-1-ylmethyl)-3,4-dihydro-1H-isoquinolin-2-yl]carbonyl}-3,4-dihydro-1H-isoquinolin-6-yl]pyrrole-3-carboxamide]	5.2	0.3 nM	0.14 nM	2.8 nM	52.8	0.05 nM	0.0105 µM	7.27	0.0763 µM
Cc1c(N(C(=O)c2cc(-c3cc4c(cc3C(=O)N3Cc5ccccc5C[C@H]3CN3CCCCC3)CN(C(=O)Cc3ccc(OCCN(C)C5COC5)cc3)CC4)n(C)c2C)c2ccc(O)cc2)cc(C#N)n1C [Example 106, N-(5-cyano-1,2-dimethyl-1H-pyrrol-3-yl)-N-(4-hydroxyphenyl)-1,2-dimethyl-5-{2-[2-(4-{2-[methyl(oxetan-3-yl)amino]ethoxy}phenyl)acetyl]-7-[(3S)-3-[(piperidin-1-yl)methyl]-1,2,3,4-tetrahydroisoquinoline-2-carbonyl]-1,2,3,4-tetrahydroisoquinolin-6-yl}-1H-pyrrole-3-carboxamide]	6.2	0.3 nM	0.19 nM	1.8 nM	36.0	0.05 nM	0.0107 µM	4.53	0.0485 µM
Cc1c(N(C(=O)c2cc(-c3cc4c(cc3C(=O)N3Cc5ccccc5C[C@H]3CN3CCCCC3)CN(C(=O)Cc3ccc(OCCN5CCN(CC(F)F)CC5)cc3)CC4)n(C)c2C)c2ccc(O)cc2)cc(C#N)n1C [Example 112, N-(5-cyano-1,2-dimethylpyrrol-3-yl)-5-{2-[2-(4-{2-[4-(2,2-difluoroethyl)piperazin-1-yl]ethoxy}phenyl)acetyl]-7-{[(3S)-3-(piperidin-1-ylmethyl)-3,4-dihydro-1H-isoquinolin-2-yl]carbonyl}-3,4-dihydro-1H-isoquinolin-6-yl}-N-(4-hydroxyphenyl)-1,2-dimethylpyrrole-3-carboxamide]	5.6	0.3 nM	0.1 nM	7.1 nM	134.0	0.05 nM	0.0124 µM	5.7	0.0707 µM
COc1cc(OCCN2CCOCC2)ccc1CC(=O)N1CCc2cc(-c3cc(C(=O)N(c4ccc(O)cc4)c4cc(C#N)n(C)c4C)c(C)n3C)c(C(=O)N3Cc4ccccc4C[C@H]3CN3CCCCC3)cc2C1 [Example 114, N-(5-cyano-1,2-dimethyl-1H-pyrrol-3-yl)-N-(4-hydroxyphenyl)-5-[2-(2-{2-methoxy-4-[2-(morpholin-4-yl)ethoxy]phenyl}acetyl)-7-[(3S)-3-[(piperidin-1-yl)methyl]-1,2,3,4-tetrahydroisoquinoline-2-carbonyl]-1,2,3,4-tetrahydroisoquinolin-6-yl]-1,2-dimethyl-1H-pyrrole-3-carboxamide]	3.9	0.2 nM	0.1 nM	4.3 nM	84.3	0.05 nM	0.0099 µM	6.09	0.0602 µM
Cc1c(N(C(=O)c2cc(-c3cc4c(cc3C(=O)N3Cc5ccccc5C[C@H]3CN3CCCCC3)CN(C(=O)Cc3ccc(OCCN(C)CCF)cc3)CC4)n(C)c2C)c2ccc(O)cc2)cc(C#N)n1C [Example 116, N-(5-cyano-1,2-dimethyl-1H-pyrrol-3-yl)-5-{2-[2-(4-{2-[(2-fluoroethyl)(methyl)amino]ethoxy}phenyl)acetyl]-7-[(3S)-3-[(piperidin-1-yl)methyl]-1,2,3,4-tetrahydroisoquinoline-2-carbonyl]-1,2,3,4-tetrahydroisoquinolin-6-yl}-N-(4-hydroxyphenyl)-1,2-dimethyl-1H-pyrrole-3-carboxamide]	7.0	0.4 nM	0.19 nM	3.3 nM	61.1	0.05 nM	0.0111 µM	5.25	0.0583 µM

The next lines start with results.

TR_FRET EKI G101V/WT selectivty ratio [1]	Ki [2]	Ki [3]	Ki [4]	TR_FRET EKI BCLxL/WT selectivty ratio [4]	Ki [5]	SMILES	IC50 [6]	Ratio (G101V/WT) [7]	IC50 [7]
8.9	0.2 nM	0.06 nM	2.3 nM	127.8	0.02 nM	Cc1c(N(C(=O)c2cc(-c3cc4c(cc3C(=O)N3Cc5ccccc5C[C@H]3CN3CCCC3)CN(C(=O)Cc3ccc(OCCN5CCOCC5)cc3F)CC4)n(C)c2C)c2ccc(O)cc2)cc(C#N)n1C [Example 100, N-(5-cyano-1,2-dimethylpyrrol-3-yl)-5-[2-(2-{2-fluoro-4-[2-(morpholin-4-yl)ethoxy]phenyl}acetyl)-7-{[(3S)-3-(pyrrolidin-1-ylmethyl)-3,4-dihydro-1H-isoquinolin-2-yl]carbonyl}-3,4-dihydro-1H-isoquinolin-6-yl]-N-(4-hydroxyphenyl)-1,2-dimethylpyrrole-3-carboxamide]	0.0156 µM	4.23	0.066 µM
6.5	0.2 nM	0.09 nM	1.1 nM	35.5	0.03 nM	Cc1c(N(C(=O)c2cc(-c3cc4c(cc3C(=O)N3Cc5ccccc5C[C@H]3CN3CCCCC3)CN(C(=O)Cc3ccc(OCCN(C)CC5COC5)cc3F)CC4)n(C)c2C)c2ccc(O)cc2)cc(C#N)n1C [Example 103, N-(5-cyano-1,2-dimethyl-1H-pyrrol-3-yl)-5-(2-{2-[2-fluoro-4-(2-{methyl[(oxetan-3-yl)methyl]amino}ethoxy)phenyl]acetyl}-7-[(3S)-3-[(piperidin-1-yl)methyl]-1,2,3,4-tetrahydroisoquinoline-2-carbonyl]-1,2,3,4-tetrahydroisoquinolin-6-yl)-N-(4-hydroxyphenyl)-1,2-dimethyl-1H-pyrrole-3-carboxamide]	0.006 µM	6.66	0.0399 µM
5.8	0.4 nM	0.17 nM	2.6 nM	40.0	0.07 nM	Cc1c(N(C(=O)c2cc(-c3cc4c(cc3C(=O)N3Cc5ccccc5C[C@H]3CN3CCCCC3)CN(C(=O)Cc3ccc(OCCN(C)CC5COC5)cc3)CC4)n(C)c2C)c2ccc(O)cc2)cc(C#N)n1C [Example 104, N-(5-cyano-1,2-dimethyl-1H-pyrrol-3-yl)-N-(4-hydroxyphenyl)-1,2-dimethyl-5-(2-{2-[4-(2-{methyl[(oxetan-3-yl)methyl]amino}ethoxy)phenyl]acetyl}-7-[(3S)-3-[(piperidin-1-yl)methyl]-1,2,3,4-tetrahydroisoquinoline-2-carbonyl]-1,2,3,4-tetrahydroisoquinolin-6-yl)-1H-pyrrole-3-carboxamide]	0.0166 µM	5.38	0.0893 µM
